Values quoted from earlier work as cited in patent EP2505189B1, “Stabilizing alkylglycoside compositions and method thereof” (Aegis Therapeutics, LLC, priority 2006, dated 2007).

Experiments:
[1] = in water
[2] = tested on: HIV-related peripheral neuropathy; conditions: in vivo
[3] = Phase I, 1987-1990
[4] = tested on: isolated nasal cilia; conditions: in vitro, cilia from 15 human donors
[5] = tested on: nasal mucosa

Molecule: CCCCCCCCCCCCCCO[C@@H]1O[C@H](CO)[C@@H](O[C@@H]2O[C@@H](CO)[C@H](O)[C@@H](O)[C@@H]2O)[C@H](O)[C@H]1O (stereo in doubt) [Tetradecyl maltoside]
- CMC [1]: 0.01 mM

Molecule: CCCCCCCCCCCCCO[C@@H]1O[C@H](CO)[C@@H](OC2OC(CO)C(O)C(O)C2O)[C@H](O)[C@H]1O (stereo in doubt) [Tridecyl maltoside]
- CMC [1]: 0.03 mM

Molecule: C[C@@H](N)C(=O)N[C@@H](CO)C(=O)N[C@H](C(=O)N[C@H](C(=O)N[C@H](C(=O)N[C@@H](CC(N)=O)C(=O)N[C@@H](Cc1ccc(O)cc1)C(=O)N[C@H](C(N)=O)[C@@H](C)O)[C@@H](C)O)[C@@H](C)O)[C@@H](C)O [DAPTA, D-ala^1-Peptide T-amide]
- adverse drug effects [2]: No adverse drug effects were noted
- toxicity [3]: complete lack of toxicity

Molecule: CCCCCCCCCCO[C@@H]1O[C@H](CO)[C@@H](O[C@H]2O[C@H](CO)[C@@H](O)[C@H](O)[C@H]2O)[C@H](O)[C@H]1O [Decyl maltoside]
- CMC [1]: 1.8 mM

Molecule: CCCCCCCCCCCCO[C@@H]1O[C@H](CO)[C@@H](O[C@H]2O[C@H](CO)[C@@H](O)[C@H](O)[C@H]2O)[C@H](O)[C@H]1O [Dodecyl β -D-maltoside]
- CMC [1]: 0.17 mM

Molecule: CCCCCCCCO[C@@H]1O[C@H](CO)[C@@H](O[C@H]2O[C@H](CO)[C@@H](O)[C@H](O)[C@H]2O)[C@H](O)[C@H]1O [Octyl maltoside]
- CMC [1]: 19.5 mM

Molecule: Sucrose dodecanoate
- CMC [1]: 0.3 mM

Molecule: benzalkonium chloride [BAC]
- effect on isolated nasal cilia [4]: ciliotoxic
- nasal irritation ([5]; 0.02% (Lange 2004)): no discernible negative effects whatsoever
- effect on the nasal mucosal function ([5]; 0.02% twice a day, two weeks of continual regular use (McMahon 1997)): no detectable effect on the nasal mucosal function
- saccharine transport time ([5]; in vivo tests (Riechelmann 2004)): did not alter saccharine transport time
- damage to the nasal mucosa ([5]; prolonged use of topical formulations, 14 in vivo studies (Marple 2004)): no significant damage to the nasal mucosa
